Patent publication US6737383B1, “Herbicidal oxadiazolidines” (priority 1999, dated 2004)

How the values were obtained:
[1] = test system: surinam grass; assay: Test B pre/postemergence surinam grass; format: in vivo, Brachiaria decumbens
Summary of the method: (§1)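 Herbicidal effect was estimated by eye on a ten-point control scale after plants spent twelve to sixteen days in a greenhouse following soil or foliar treatment. Foliar sprays targeted plants at one to four leaves; all doses were formulated in a non-phytotoxic solvent with surfactant.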

[2] = test system: cocklebur; assay: Test B pre/postemergence cocklebur; format: in vivo, Xanthium strumarium
Summary of the method: as §1

[3] = test system: corn; assay: Test B pre/postemergence corn; format: in vivo, Zea mays
Summary of the method: as §1

[4] = test system: crabgrass; assay: Test B pre/postemergence crabgrass; format: in vivo, Digitaria sanguinalis
Summary of the method: as §1

[5] = test system: giant foxtail; assay: Test B pre/postemergence giant foxtail; format: in vivo, Setaria faberii
Summary of the method: as §1

[6] = test system: pigweed; assay: Test B pre/postemergence pigweed; format: in vivo, Amaranthus retroflexus
Summary of the method: as §1

[7] = test system: rape; assay: Test B pre/postemergence rape; format: in vivo, Brassica napus
Summary of the method: as §1

[8] = test system: soybean; assay: Test B pre/postemergence soybean; format: in vivo, Glycine max
Summary of the method: as §1

[9] = test system: sugar beet; assay: Test B pre/postemergence sugar beet; format: in vivo, Beta vulgaris
Summary of the method: as §1

[10] = test system: velvetleaf; assay: Test B pre/postemergence velvetleaf; format: in vivo, Abutilon theophrasti
Summary of the method: as §1

[11] = test system: wheat; assay: Test B pre/postemergence wheat; format: in vivo, Triticum aestivum
Summary of the method: as §1

[12] = test system: wild oat; assay: Test B pre/postemergence wild oat; format: in vivo, Avena fatua
Summary of the method: as §1

[13] = test system: purple nutsedge; assay: Test B pre/postemergence purple nutsedge; format: in vivo, Cyperus rotundus
Summary of the method: as §1

[14] = test system: smallflower flatsedge; assay: Test B flood test smallflower flatsedge; format: in vivo, Cyperus difformis
Summary of the method: (§2)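 Plants were grown to the 2-leaf stage before treatment with test chemical, then held in a greenhouse for twelve to sixteen days. Injury was visually rated against untreated controls on a 0–10 scale, where 0 is no effect and 10 is complete control.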

[15] = test system: duck salad; assay: Test B flood test duck salad; format: in vivo, Heteranthera limosa
Summary of the method: as §2

[16] = test system: bamyardgrass; assay: Test B flood test barnyardgrass; format: in vivo, Echinochloa crus-galli
Summary of the method: as §2

[17] = Postemergence, Rate 500 g/ha, scale of 0 to 10 where 0 is no effect and 10 is complete control
[18] = Preemergence, Rate 62 g/ha, scale 0 to 10 (0 no effect, 10 complete control)
[19] = Preemergence, Rate 125 g/ha, scale of 0 to 10 where 0 is no effect and 10 is complete control
[20] = Preemergence, Rate 250 g/ha, scale 0 to 10, 0 is no effect, 10 is complete control
[21] = Preemergence, Rate 500 g/ha, scale 0 to 10, 0 is no effect, 10 is complete control
[22] = Rate 62 g/ha, Postemergence, scale of 0 to 10 where 0 is no effect and 10 is complete control
[23] = Rate 125 g/ha, Postemergence, scale 0 to 10, 0 is no effect, 10 is complete control
[24] = Postemergence, Rate 250 g/ha, scale 0 to 10
[25] = Postemergence block (flood test species), Rate 250 g/ha, scale 0 to 10
[26] = Postemergence section (flood test species), Rate 500 g/ha, scale of 0 to 10 where 0 is no effect and 10 is complete control
[27] = Rate 125 g/ha, Postemergence section (flood test species), scale 0 to 10, 0 is no effect, 10 is complete control
[28] = Rate 62 g/ha, Postemergence (flood test species), scale of 0 to 10 where 0 is no effect and 10 is complete control

Structure (SMILES): CC(C)N(C(=O)n1oc(=O)n(C2CCCCCC2)c1=O)C1=CCCCC1 [Compound 428]
- B. signalgrass plant response rating ([1]; Postemergence, Rate 250 g/ha, scale 0 to 10, 0 no effect, 10 complete control): 0
- B. signalgrass plant response rating [1, 17]: 0
- Plant response rating, B. signalgrass [1, 18]: 0
- Plant response rating, B. signalgrass [1, 19]: 0
- B. signalgrass plant response rating [1, 20]: 0
- B. signalgrass plant response rating [1, 21]: 3
- B. signalgrass plant response rating [1, 22]: 0
- B. signalgrass plant response rating [1, 23]: 0
- Cocklebur plant response rating [2, 24]: 0
- Cocklebur plant response rating [2, 17]: 1
- Plant response rating, Cocklebur [2, 18]: 0
- Plant response rating, Cocklebur [2, 19]: 0
- Cocklebur plant response rating [2, 20]: 0
- Cocklebur plant response rating [2, 21]: 0
- Cocklebur plant response rating [2, 22]: 0
- Cocklebur plant response rating [2, 23]: 0
- Corn plant response rating [3, 24]: 0
- Corn plant response rating [3, 17]: 0
- Plant response rating, Corn [3, 18]: 0
- Plant response rating, Corn [3, 19]: 0
- Corn plant response rating [3, 20]: 0
- Corn plant response rating [3, 21]: 0
- Corn plant response rating [3, 22]: 0
- Corn plant response rating [3, 23]: 0
- Crabgrass plant response rating [4, 24]: 0
- Crabgrass plant response rating [4, 17]: 3
- Plant response rating, Crabgrass [4, 18]: 2
- Plant response rating, Crabgrass [4, 19]: 7
- Crabgrass plant response rating [4, 20]: 9
- Crabgrass plant response rating [4, 21]: 10
- Crabgrass plant response rating [4, 22]: 0
- Crabgrass plant response rating [4, 23]: 0
- Giant foxtail plant response rating [5, 24]: 0
- Giant foxtail plant response rating [5, 17]: 0
- Plant response rating, Giant foxtail [5, 18]: 0
- Plant response rating, Giant foxtail [5, 19]: 7
- Giant foxtail plant response rating [5, 20]: 8
- Giant foxtail plant response rating [5, 21]: 10
- Giant foxtail plant response rating [5, 22]: 0
- Giant foxtail plant response rating [5, 23]: 0
- Redroot pigweed plant response rating [6, 24]: 0
- Redroot pigweed plant response rating [6, 17]: 3
- Plant response rating, Redroot pigweed [6, 18]: 0
- Plant response rating, Redroot pigweed [6, 19]: 0
- Redroot pigweed plant response rating [6, 20]: 0
- Redroot pigweed plant response rating [6, 21]: 0
- Redroot pigweed plant response rating [6, 23]: 0
- Rape plant response rating [7, 24]: 0
- Rape plant response rating [7, 17]: 0
- Plant response rating, Rape [7, 18]: 0
- Plant response rating, Rape [7, 19]: 0
- Rape plant response rating [7, 20]: 0
- Rape plant response rating [7, 21]: 0
- Rape plant response rating [7, 23]: 0
- Soybean plant response rating [8, 24]: 2
- Soybean plant response rating [8, 17]: 3
- Plant response rating, Soybean [8, 18]: 0
- Plant response rating, Soybean [8, 19]: 0
- Soybean plant response rating [8, 20]: 0
- Soybean plant response rating [8, 21]: 0
- Soybean plant response rating [8, 23]: 1
- Sugarbeets plant response rating [9, 24]: 0
- Sugarbeets plant response rating [9, 17]: 0
- Plant response rating, Sugarbeets [9, 18]: 0
- Plant response rating, Sugarbeets [9, 19]: 0
- Sugarbeets plant response rating [9, 20]: 0
- Sugarbeets plant response rating [9, 21]: 0
- Sugarbeets plant response rating [9, 23]: 0
- Velvetleaf plant response rating [10, 24]: 2
- Velvetleaf plant response rating [10, 17]: 7
- Plant response rating, Velvetleaf [10, 18]: 0
- Plant response rating, Velvetleaf [10, 19]: 0
- Velvetleaf plant response rating [10, 20]: 0
- Velvetleaf plant response rating [10, 21]: 0
- Velvetleaf plant response rating [10, 23]: 0
- Wheat plant response rating [11, 24]: 0
- Wheat plant response rating [11, 17]: 0
- Plant response rating, Wheat [11, 18]: 0
- Plant response rating, Wheat [11, 19]: 0
- Wheat plant response rating [11, 20]: 0
- Wheat plant response rating [11, 21]: 0
- Wheat plant response rating [11, 23]: 0
- Wild oats plant response rating [12, 24]: 0
- Wild oats plant response rating [12, 17]: 0
- Plant response rating, Wild oats [12, 18]: 0
- Plant response rating, Wild oats [12, 19]: 0
- Wild oats plant response rating [12, 20]: 0
- Wild oats plant response rating [12, 21]: 2
- Wild oats plant response rating [12, 23]: 0
- Nutsedge plant response rating [13, 24]: 0
- Nutsedge plant response rating [13, 17]: 0
- Plant response rating, Nutsedge [13, 18]: 0
- Plant response rating, Nutsedge [13, 19]: 0
- Nutsedge plant response rating [13, 20]: 0
- Nutsedge plant response rating [13, 21]: 0
- Nutsedge plant response rating [13, 23]: 0
- S. Flatsedge plant response rating [14, 25]: 0
- S. Flatsedge plant response rating [14, 26]: 9
- S. Flatsedge plant response rating [14, 27]: 0
- Ducksalad plant response rating [15, 25]: 3
- Ducksalad plant response rating [15, 26]: 5
- Ducksalad plant response rating [15, 28]: 0
- Ducksalad plant response rating [15, 27]: 0
- Barnyardgrass plant response rating [16, 25]: 2
- Barnyardgrass plant response rating [16, 26]: 5
- Barnyardgrass plant response rating [16, 28]: 0
- Barnyardgrass plant response rating [16, 27]: 0
